Columns and labels:
[1] = target: Human immunodeficiency virus type 1 reverse transcriptase (Human immunodeficiency virus 1, UniProt Q72547); assay: Inhibitory activity against recombinant HIV-1 reverse transcriptase (rRT)
[2] = Anti-HIV activity by its ability to inhibit the replication of HIV-1 strain A17 (Y181C) in peripheral blood mononuclear cells (PBMC); assay type: functional; conditions: Homo sapiens
[3] = Anti-HIV activity by its ability to inhibit the replication of HIV-1 strain HTLV IIIB in peripheral blood mononuclear cells (PBMC); assay type: functional; conditions: Homo sapiens
[4] = Compound was evaluated for the cytotoxic activity by using Microculture Tetrazolium assay (MTA); assay type: functional
[5] = Anti-HIV activity by its ability to inhibit the replication of HIV-1 strain RT-MDR(V106A) in peripheral blood mononuclear cells (PBMC); assay type: functional; conditions: Homo sapiens
[6] = Anti-HIV activity by its ability to inhibit the replication of HIV-1 strain A17 variant (Y181C,K103N) in peripheral blood mononuclear cells (PBMC); assay type: functional, Homo sapiens

SMILES | IC50 [1] [nM] | IC50 [2] [nM] | IC50 [3] [nM] | CC50 [4] [nM] | IC50 [5] [nM] | IC50 [6] [nM]
CC1(C)C2CC(C/N=C(\S)Nc3ccc(Br)cn3)CC1C2 (stereo not given) | > 100000 | – | – | – | – | –
S=C(NCCC1=CCCCC1)Nc1ccc(Cl)cn1 | 500 | 68 | 3 | > 100000 | 1 | 30000
FC(F)(F)c1ccc(/N=C(\S)NCCC2=CCCCC2)nc1 | 4000 | 300 | 79 | > 100000 | 38 | > 100000
S=C(NCC12CC3CC(CC(C3)C1)C2)Nc1ccc(Br)cn1 | > 100000 | – | – | – | – | –
S=C(NCCC1=CCCCC1)Nc1ccc(Br)cn1 | 400 | – | 3 | > 100000 | 1 | 18700
CC(C)Nc1cccnc1N1CCN(C(=O)c2cc3cc(NS(C)(=O)=O)ccc3[nH]2)CC1 [DELAVIRDINE] | – | 50000 | 9 | 3600 | 400 | > 100000
CCOCn1c(Cc2ccccc2)c(C(C)C)c(=O)[nH]c1=O [EMIVIRINE] | – | – | – | > 100000 | 300 | –
Cc1ccnc2c1NC(=O)c1cccnc1N2C1CC1 [NEVIRAPINE] | – | > 100000 | 34 | 10500 | 5000 | > 100000
S=C(NCCc1ccccn1)Nc1ccc(Br)cn1 [TROVIRDINE] | – | 500 | 7 | > 100000 | 20 | > 100000
Cc1cn([C@H]2C[C@H](N=[N+]=[N-])[C@@H](CO)O2)c(=O)[nH]c1=O [ZIDOVUDINE] | – | 6 | – | > 100000 | 200 | 4

— ChEMBL document CHEMBL1131982, “N-[2-(1-cyclohexenyl)ethyl]-N'-[2-(5-bromopyridyl)]-thiourea and N'-[2-(1-cyclohexenyl)ethyl]-N'-[2-(5-chloropyridyl)]-thiourea as potent inhibitors of multidrug-resistant human immunodeficiency virus-1” (Bioorg Med Chem Lett, 1999)
